Laboratory results reported in patent publication US7517874B2 (priority 2007, dated 2009).

Experiments:
[1] = target: human CB1 receptor (hCB1) (Homo sapiens, UniProt P21554); assay: cell-based; format: cell-based; conditions: for +/− HCB1: agonist or inverse agonist at hCB1
Method in brief: (§1)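 Readout: LANCE TR-FRET cAMP, back-calculated from a concurrent standard curve and scaled between forskolin-only and forskolin + 1 μM CP55,940 wells. EC50 and intrinsic activity came from four-parameter fits.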

rat CB2 receptor (rCB2) = target: T1, rat CB2 receptor (rCB2) (Rattus norvegicus, UniProt Q9QZN9); assay: cell-based; format: cell-based; conditions: for +/− RCB2: agonist or inverse agonist at rCB2
T1 sequence (Q9QZN9 1-360): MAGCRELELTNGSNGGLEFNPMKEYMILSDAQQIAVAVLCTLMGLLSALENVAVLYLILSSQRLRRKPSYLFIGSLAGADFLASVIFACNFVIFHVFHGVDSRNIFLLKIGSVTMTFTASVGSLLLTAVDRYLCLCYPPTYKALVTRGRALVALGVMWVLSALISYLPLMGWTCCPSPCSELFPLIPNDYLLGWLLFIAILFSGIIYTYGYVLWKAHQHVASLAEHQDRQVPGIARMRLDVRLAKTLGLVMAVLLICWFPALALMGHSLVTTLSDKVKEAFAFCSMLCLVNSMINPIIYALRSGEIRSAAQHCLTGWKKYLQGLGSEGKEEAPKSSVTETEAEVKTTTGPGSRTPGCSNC
Method in brief: as §1

human CB1 receptor (hCB1), sequence (P21554 whole entry): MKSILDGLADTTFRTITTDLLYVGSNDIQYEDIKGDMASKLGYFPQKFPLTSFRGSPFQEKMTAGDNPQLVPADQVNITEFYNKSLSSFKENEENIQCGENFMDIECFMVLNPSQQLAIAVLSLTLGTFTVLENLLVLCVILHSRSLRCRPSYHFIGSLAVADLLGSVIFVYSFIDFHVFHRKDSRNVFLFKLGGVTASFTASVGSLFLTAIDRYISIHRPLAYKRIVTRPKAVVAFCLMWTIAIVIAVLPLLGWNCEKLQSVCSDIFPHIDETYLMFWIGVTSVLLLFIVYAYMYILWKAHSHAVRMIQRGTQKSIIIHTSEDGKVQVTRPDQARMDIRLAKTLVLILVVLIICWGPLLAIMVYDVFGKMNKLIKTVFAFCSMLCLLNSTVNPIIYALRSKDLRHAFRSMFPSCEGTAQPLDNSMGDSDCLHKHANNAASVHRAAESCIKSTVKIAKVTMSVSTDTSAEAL

Compound: CNC(=O)[C@@H](NC(=O)c1nc(-c2ccccc2Cl)n2c1CN(C)CC2)C(C)(C)C [Compound 253, (S)-3-(2-chlorophenyl)-N-(3,3-dimethyl-1-(methylamino)-1-oxobutan-2-yl)-7-methyl-5,6,7,8-tetrahydroimidazo[1,5-a]pyrazine-1-carboxamide]
- EC50 [1]: > 10 µM
- +/− RCB2 (rat CB2 receptor (rCB2)): +

Compound: CNC(=O)[C@@H](NC(=O)c1nc(-c2ccc(C#N)cc2)n2c1CN(C)CC2)C(C)(C)C [Compound 254, (S)-3-(4-cyanophenyl)-N-(3,3-dimethyl-1-(methylamino)-1-oxobutan-2-yl)-7-methyl-5,6,7,8-tetrahydroimidazo[1,5-a]pyrazine-1-carboxamide]
- EC50 [1]: > 10 µM
- +/− RCB2 (rat CB2 receptor (rCB2)): −

Compound: CNC(=O)[C@@H](NC(=O)c1nc(-c2ccccc2C(F)(F)F)n2c1CN(C)CC2)C(C)(C)C [Compound 255, (S)-N-(3,3-dimethyl-1-(methylamino)-1-oxobutan-2-yl)-7-methyl-3-(2-(trifluoromethyl)phenyl)-5,6,7,8-tetrahydroimidazo[1,5-a]pyrazine-1-carboxamide]
- EC50 [1]: > 10 µM
- +/− RCB2 (rat CB2 receptor (rCB2)): +

Compound: CNC(=O)[C@@H](NC(=O)c1nc(C2=CCCCC2)n2c1CN(C)CC2)C(C)(C)C [Compound 256]
- EC50 [1]: > 10 µM
- +/− RCB2 (rat CB2 receptor (rCB2)): +

Compound: CNC(=O)[C@@H](NC(=O)c1nc(C=C(C)C)n2c1CN(C)CC2)C(C)(C)C [Compound 257, (S)-N-(3,3-dimethyl-1-(methylamino)-1-oxobutan-2-yl)-7-methyl-3-(2-methylprop-1-enyl)-5,6,7,8-tetrahydroimidazo[1,5-a]pyrazine-1-carboxamide]
- EC50 [1]: > 10 µM
- +/− RCB2 (rat CB2 receptor (rCB2)): +

Compound: CNC(=O)[C@@H](NC(=O)c1nc(-c2ccccc2F)n2c1CN(C)CC2)C(C)(C)C [Compound 258, (S)-N-(3,3-dimethyl-1-(methylamino)-1-oxobutan-2-yl)-3-(2-fluorophenyl)-7-methyl-5,6,7,8-tetrahydroimidazo[1,5-a]pyrazine-1-carboxamide]
- EC50 [1]: > 10 µM
- EC50 (rat CB2 receptor (rCB2)): > 10 µM

Compound: CNC(=O)[C@@H](NC(=O)c1nc(-c2ccccc2C#N)n2c1CN(C)CC2)C(C)(C)C [Compound 259, (S)-3-(2-cyanophenyl)-N-(3,3-dimethyl-1-(methylamino)-1-oxobutan-2-yl)-7-methyl-5,6,7,8-tetrahydroimidazo[1,5-a]pyrazine-1-carboxamide]
- EC50 [1]: > 10 µM
- EC50 (rat CB2 receptor (rCB2)): > 10 µM

Compound: CNC(=O)[C@@H](NC(=O)c1nc(-c2cccc(C#N)c2)n2c1CN(C)CC2)C(C)(C)C [Compound 260, (S)-3-(3-cyanophenyl)-N-(3,3-dimethyl-1-(methylamino)-1-oxobutan-2-yl)-7-methyl-5,6,7,8-tetrahydroimidazo[1,5-a]pyrazine-1-carboxamide]
- EC50 [1]: > 10 µM
- +/− RCB2 (rat CB2 receptor (rCB2)): −

Compound: CNC(=O)[C@@H](NC(=O)c1nc(-c2cccc(F)c2F)n2c1CN(C)CC2)C(C)(C)C [Compound 261, (S)-3-(2,3-difluorophenyl)-N-(3,3-dimethyl-1-(methylamino)-1-oxobutan-2-yl)-7-methyl-5,6,7,8-tetrahydroimidazo[1,5-a]pyrazine-1-carboxamide]
- EC50 [1]: > 10 µM
- +/− RCB2 (rat CB2 receptor (rCB2)): +

Compound: CNC(=O)[C@@H](NC(=O)c1nc(-c2cc(F)cc(F)c2)n2c1CN(C)CC2)C(C)(C)C [Compound 262, (S)-3-(3,5-difluorophenyl)-N-(3,3-dimethyl-1-(methylamino)-1-oxobutan-2-yl)-7-methyl-5,6,7,8-tetrahydroimidazo[1,5-a]pyrazine-1-carboxamide]
- EC50 [1]: > 10 µM
- +/− RCB2 (rat CB2 receptor (rCB2)): +

Compound: CNC(=O)[C@@H](NC(=O)c1nc(/C=C/C(C)(C)C)n2c1CN(C)CC2)C(C)(C)C [Compound 263, (S,E)-N-(3,3-dimethyl-1-(methylamino)-1-oxobutan-2-yl)-3-(3,3-dimethylbut-1-enyl)-7-methyl-5,6,7,8-tetrahydroimidazo[1,5-a]pyrazine-1-carboxamide]
- EC50 [1]: > 10 µM
- +/− RCB2 (rat CB2 receptor (rCB2)): +

Compound: CNC(=O)[C@@H](NC(=O)c1nc(/C=C/COC)n2c1CN(C)CC2)C(C)(C)C [Compound 264, (S,E)-N-(3,3-dimethyl-1-(methylamino)-1-oxobutan-2-yl)-3-(3-methoxyprop-1-enyl)-7-methyl-5,6,7,8-tetrahydroimidazo[1,5-a]pyrazine-1-carboxamide]
- EC50 [1]: > 10 µM
- +/− RCB2 (rat CB2 receptor (rCB2)): +

Compound: CNC(=O)[C@@H](NC(=O)c1nc(-c2ccc(-c3ccccc3)cc2)n2c1CN(C)CC2)C(C)(C)C [Compound 265, (S)-3-(biphenyl-4-yl)-N-(3,3-dimethyl-1-(methylamino)-1-oxobutan-2-yl)-7-methyl-5,6,7,8-tetrahydroimidazo[1,5-a]pyrazine-1-carboxamide]
- EC50 [1]: > 10 µM
- +/− RCB2 (rat CB2 receptor (rCB2)): −

Compound: C=Cc1nc(C(=O)N[C@H](C(=O)NC)C(C)(C)C)c2n1CCN(C)C2 [Compound 266, (S)-N-(3,3-dimethyl-1-(methylamino)-1-oxobutan-2-yl)-7-methyl-3-vinyl-5,6,7,8-tetrahydroimidazo[1,5-a]pyrazine-1-carboxamide]
- EC50 [1]: > 10 µM
- +/− RCB2 (rat CB2 receptor (rCB2)): −

Compound: C=C(C)c1nc(C(=O)N[C@H](C(=O)NC)C(C)(C)C)c2n1CCN(C)C2 [Compound 267, (S)-N-(3,3-dimethyl-1-(methylamino)-1-oxobutan-2-yl)-7-methyl-3-(prop-1-en-2-yl)-5,6,7,8-tetrahydroimidazo[1,5-a]pyrazine-1-carboxamide]
- EC50 [1]: > 10 µM
- +/− RCB2 (rat CB2 receptor (rCB2)): +

Compound: CCC/C=C/c1nc(C(=O)N[C@H](C(=O)NC)C(C)(C)C)c2n1CCN(C)C2 [Compound 268, (S,E)-N-(3,3-dimethyl-1-(methylamino)-1-oxobutan-2-yl)-7-methyl-3-(pent-1-enyl)-5,6,7,8-tetrahydroimidazo[1,5-a]pyrazine-1-carboxamide]
- +/− HCB1 [1]: +
- EC50 (rat CB2 receptor (rCB2)): > 10 µM

Compound: CNC(=O)[C@@H](NC(=O)c1nc(C2CC2)n2c1CN(C)CC2)C(C)(C)C [Compound 269, (S)-3-cyclopropyl-N-(3,3-dimethyl-1-(methylamino)-1-oxobutan-2-yl)-7-methyl-5,6,7,8-tetrahydroimidazo[1,5-a]pyrazine-1-carboxamide]
- +/− HCB1 [1]: +
- +/− RCB2 (rat CB2 receptor (rCB2)): +

Compound: CNC(=O)[C@@H](NC(=O)c1nc(C2=CCC(C)CC2)n2c1CN(C)CC2)C(C)(C)C (stereo partly drawn) [Compound 270, N-((S)-3,3-dimethyl-1-(methylamino)-1-oxobutan-2-yl)-7-methyl-3-(4-methylcyclohex-1-enyl)-5,6,7,8-tetrahydroimidazo[1,5-a]pyrazine-1-carboxamide]
- EC50 [1]: > 10 µM
- +/− RCB2 (rat CB2 receptor (rCB2)): −

Compound: CNC(=O)[C@@H](NC(=O)c1nc(C2=CCC(C(C)(C)C)CC2)n2c1CN(C)CC2)C(C)(C)C (stereo partly drawn) [Compound 271, 3-(4-tert-butylcyclohex-1-enyl)-N-((S)-3,3-dimethyl-1-(methylamino)-1-oxobutan-2-yl)-7-methyl-5,6,7,8-tetrahydroimidazo[1,5-a]pyrazine-1-carboxamide]
- +/− HCB1 [1]: +
- +/− RCB2 (rat CB2 receptor (rCB2)): +

Compound: CNC(=O)[C@@H](NC(=O)c1nc(C2=CCCCCC2)n2c1CN(C)CC2)C(C)(C)C [Compound 272, (S,E)-3-cycloheptenyl-N-(3,3-dimethyl-1-(methylamino)-1-oxobutan-2-yl)-7-methyl-5,6,7,8-tetrahydroimidazo[1,5-a]pyrazine-1-carboxamide]
- +/− HCB1 [1]: +
- +/− RCB2 (rat CB2 receptor (rCB2)): +

Compound: CNC(=O)[C@@H](NC(=O)c1nc(/C=C/C2CC2)n2c1CN(C)CC2)C(C)(C)C [Compound 273, (S,E)-3-(2-cyclopropylvinyl)-N-(3,3-dimethyl-1-(methylamino)-1-oxobutan-2-yl)-7-methyl-5,6,7,8-tetrahydroimidazo[1,5-a]pyrazine-1-carboxamide]
- EC50 [1]: > 10 µM
- EC50 (rat CB2 receptor (rCB2)): > 10 µM

Compound: CNC(=O)[C@@H](NC(=O)c1nc(C2=CCNCC2)n2c1CN(C)CC2)C(C)(C)C [Compound 274, (S)-N-(3,3-dimethyl-1-(methylamino)-1-oxobutan-2-yl)-7-methyl-3-(1,2,3,6-tetrahydropyridin-4-yl)-5,6,7,8-tetrahydroimidazo[1,5-a]pyrazine-1-carboxamide]
- +/− HCB1 [1]: +
- +/− RCB2 (rat CB2 receptor (rCB2)): −

Compound: CNC(=O)[C@H](CC(C)C)NC(=O)c1nc(-c2ccccc2)n2c1CN(C)CC2 [Compound 275, (S)-7-methyl-N-(4-methyl-1-(methylamino)-1-oxopentan-2-yl)-3-phenyl-5,6,7,8-tetrahydroimidazo[1,5-a]pyrazine-1-carboxamide]
- EC50 [1]: > 10 µM
- +/− RCB2 (rat CB2 receptor (rCB2)): +

Compound: CNC(=O)[C@H](CC(C)C)NC(=O)c1nc(-c2ccc(Cl)cc2F)n2c1CN(C)CC2 [Compound 276, (S)-3-(4-chloro-2-fluorophenyl)-7-methyl-N-(4-methyl-1-(methylamino)-1-oxopentan-2-yl)-5,6,7,8-tetrahydroimidazo[1,5-a]pyrazine-1-carboxamide]
- EC50 [1]: > 10 µM
- +/− RCB2 (rat CB2 receptor (rCB2)): −

Compound: CNC(=O)[C@H](CC(C)C)NC(=O)c1nc(-c2ccc(Cl)c(F)c2)n2c1CN(C)CC2 [Compound 277, (S)-3-(4-chloro-3-fluorophenyl)-7-methyl-N-(4-methyl-1-(methylamino)-1-oxopentan-2-yl)-5,6,7,8-tetrahydroimidazo[1,5-a]pyrazine-1-carboxamide]
- EC50 [1]: > 10 µM
- +/− RCB2 (rat CB2 receptor (rCB2)): −

Compound: CNC(=O)[C@H](CC(C)C)NC(=O)c1nc(-c2ccc(F)c(F)c2)n2c1CN(C)CC2 [Compound 278, (S)-3-(3,4-difluorophenyl)-7-methyl-N-(4-methyl-1-(methylamino)-1-oxopentan-2-yl)-5,6,7,8-tetrahydroimidazo[1,5-a]pyrazine-1-carboxamide]
- EC50 [1]: > 10 µM
- +/− RCB2 (rat CB2 receptor (rCB2)): +
